# How the values were obtained:
# Adenosine receptor A1 [1] = molecular target: T1, Adenosine receptor A1 (Bos taurus, UniProt P28190); assay: biochemical
# T1 sequence (P28190 whole entry): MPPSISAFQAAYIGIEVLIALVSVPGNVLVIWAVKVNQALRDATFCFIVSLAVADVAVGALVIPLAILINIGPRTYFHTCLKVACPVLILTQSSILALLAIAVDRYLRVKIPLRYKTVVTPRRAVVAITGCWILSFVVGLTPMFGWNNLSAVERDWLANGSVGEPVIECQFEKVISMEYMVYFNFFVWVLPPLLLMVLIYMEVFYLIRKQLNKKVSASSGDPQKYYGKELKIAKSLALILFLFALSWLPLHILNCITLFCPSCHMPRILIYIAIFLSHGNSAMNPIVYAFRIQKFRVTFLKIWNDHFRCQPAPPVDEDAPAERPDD
# Adenosine receptor A3 = molecular target: T2, Adenosine receptor A3 (Rattus norvegicus, UniProt P28647); assay: Ability to displace the specific binding of [3H](R)-PIA to adenosine A3 receptor from rat testis membranes; format: cell membranes, Membrane
# T2 sequence (P28647 whole entry): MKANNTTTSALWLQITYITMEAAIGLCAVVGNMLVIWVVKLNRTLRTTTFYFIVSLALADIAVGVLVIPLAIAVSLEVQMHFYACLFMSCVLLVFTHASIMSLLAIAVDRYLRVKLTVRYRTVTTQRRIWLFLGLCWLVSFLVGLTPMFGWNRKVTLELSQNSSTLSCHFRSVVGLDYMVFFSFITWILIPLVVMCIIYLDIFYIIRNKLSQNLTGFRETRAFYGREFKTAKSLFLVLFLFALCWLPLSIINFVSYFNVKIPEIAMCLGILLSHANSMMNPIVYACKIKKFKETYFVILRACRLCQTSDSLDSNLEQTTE
# [2] = molecular target: Adenosine receptor A2a (Bos taurus); assay: biochemical
# Bos taurus [3] = species: Bos taurus; assay: Selectivity, ratio of affinity towards adenosine A2A to A1
# [4] = Selectivity, ratio of affinity towards adenosine A3 to A1
# Bos taurus [5] = species: Bos taurus; assay: Selectivity, ratio of affinity towards adenosine A3 to A2A
# Adenosine receptor A1 [6] = molecular target: T1, Adenosine receptor A1; assay: Displacement of [3H]CHA from A1 Adenosine receptor of Bovine brain cortical membranes
Structure (SMILES),Ki (Adenosine receptor A1 [1]) [nM],Ki (Adenosine receptor A3) [nM],Ki [2] [nM],Selectivity (Bos taurus [3]),Selectivity [4],Selectivity (Bos taurus [5]),Ki (Adenosine receptor A1 [6]) [nM]
CCOC(=O)N1CCN(c2cc(-c3ccccc3)nc3nc(C)ccc23)CC1,1200,> 10000,–,–,–,–,–
Cc1ccc2c(NN)cc(-c3ccccc3)nc2n1,100,> 10000,–,–,–,–,–
CCn1c(-c2ccccc2)cc(=O)c2ccc(C)nc21,450,> 10000,–,–,–,–,–
Cc1ccc2c(Oc3ccccc3)cc(-c3ccccc3)nc2n1,–,> 10000,–,–,–,–,–
Nc1ccc2c(O)cc(-c3ccccc3)nc2n1,5.3,> 10000,–,–,–,–,–
CCOc1ccc2c(O)cc(-c3ccccc3)nc2n1,5.2,> 10000,> 10000,> 1920,> 1920,–,–
Cc1ccc2c(Cl)cc(-c3ccccc3)nc2n1,–,> 10000,> 10000,> 10,> 10,–,1000
CCCn1c(=O)c2[nH]c(-c3ccc(OCC(=O)NCCN)cc3)nc2n(CCC)c1=O [XANTHINE AMINE CONGENER],1.3,418,–,–,–,–,–
Oc1cc(-c2ccccc2)nc2nc(Cl)ccc12,0.15,2100,–,–,–,–,–
COc1cc(-c2ccccc2)nc2c1ccc(=O)n2C,1300,> 10000,–,–,–,–,–
Oc1cc(-c2ccccc2)nc2nc(Br)ccc12,0.7,2100,–,–,–,–,–
COc1ccc2c(O)cc(-c3ccccc3)nc2n1,1.6,> 10000,–,–,–,–,–
COc1cc(-c2ccccc2)nc2nc(C)ccc12,6000,> 10000,–,–,–,–,–
OC[C@H]1O[C@@H](n2cnc3c(NC4CCCCC4)ncnc32)[C@H](O)[C@@H]1O,1.3,25,–,–,–,–,–

# Further lines, results first:
Ki (Adenosine receptor A1 [1]) [nM],Ki (Adenosine receptor A3) [nM],Ki [2] [nM],Selectivity (Bos taurus [3]),Selectivity [4],Selectivity (Bos taurus [5]),Ki (Adenosine receptor A1 [6]) [nM],Structure (SMILES)
4900,> 10000,–,–,–,–,–,Cn1c(=O)ccc2c(O)cc(-c3ccccc3)nc21
> 10000,> 10000,–,–,–,–,–,O=c1ccc2c(O)cc(-c3ccccc3)nc2[nH]1
> 10000,> 10000,> 10000,–,–,–,–,Cc1ccc2c(N=[N+]=[N-])cc(-c3ccccc3)nc2n1
4.1,> 10000,170,41,> 2440,> 59,–,Oc1cc(-c2ccccc2)nc2nc(F)ccc12
550,> 10000,–,–,–,–,–,Cc1ccc2c(N(C)C)cc(-c3ccccc3)nc2n1
17,> 10000,–,–,–,–,–,Cc1ccc2c(N)cc(-c3ccccc3)nc2n1
6900,> 10000,–,–,–,–,–,Cc1ccc2ccc(-c3ccccc3)nc2n1
5.3,8800,460,87,1660,19,–,Cc1ccc2c(O)cc(-c3ccccc3)nc2n1
80,> 10000,–,–,–,–,–,Cc1ccc2c(S)cc(-c3ccccc3)nc2n1
11,4600,470,43,418,10,–,Cc1ccc2c(O)cc(-c3ccccc3F)nc2n1
28,> 10000,–,–,–,–,–,Cc1ccc2c(NC3CCCCC3)cc(-c3ccccc3)nc2n1
16,3000,–,–,–,–,–,Oc1cc(-c2ccccc2)nc2ncccc12
26,> 10000,–,–,–,–,–,Oc1cc(-c2ccccc2)nc2nc(Oc3ccccc3)ccc12
8700,> 10000,–,–,–,–,–,Cc1ccc2c(N3CCNCC3)cc(-c3ccccc3)nc2n1
9.9,> 10000,–,–,–,–,–,Cc1ccc2c(O)cc(-c3ccc([N+](=O)[O-])cc3)nc2n1
5.3,6100,–,–,–,–,–,Cc1ccc2c(O)cc(-c3ccc(F)cc3)nc2n1

# Reference: ChEMBL document CHEMBL1132946 (J Med Chem, 2000)
